Source: patent US20250296988A1, “COMBINATION THERAPY” (ViiV Healthcare Company, priority 2020, published 2025)

What was measured:
[1] = test system: HIV-1NL4-3; assay: Two-drug combination anti-HIV cytoprotection assay in MT-4 cells (MTS endpoint, MacSynergy II analysis); type: cell-based
Protocol: Provided below is an evaluation of the anti-HIV-1 activity and cytotoxicity of N6LS in two drug combination studies with Cabotegravir. N6LS was produced using standard methods described in the art. Stock solutions were prepared as listed in Table 4 and were thawed at room temperature on each day of assay setup to generate fresh working drug dilutions that were used that day in the assays. Working dilutions were not stored for re-use in subsequent experiments performed on different days. For each combination assay, N6LS was evaluated using a 20 nM high-test concentration with seven additional serial half-log dilutions. Each dilution of N6LS was tested in combination with five dilutions of the anti-HIV drug, Cabotegravir. In all cases the final DMSO concentration was <0.25%, which has been previously shown to have no effect in the described assays.
For cell preparation, MT-4 cells (obtained from the NIH AIDS Research and Reference Reagent Program) were passaged in T-75 flasks prior to use in the antiviral assay. On the day preceding the assay, the cells were split 1:2 to assure they were in an exponential growth phase at the time of infection. Total cell and viability quantification were performed using a hemacytometer and trypan blue exclusion. Cell viability needed to be greater than 95% for the cells to be utilized in the assay. The cells were re-suspended in tissue culture medium and added to the drug-containing microtiter plates in a volume of 110 μL and at a seeding density of 5.0×10^3 cells/well.
For virus preparation, the virus used for these tests was the CXCR4-tropic virus strain HIV-1NL4-3. This virus was obtained from the NIH AIDS Research and Reference Reagent Program and was grown in MT-4 cells for the production of stock virus pools. For each assay, a pre-titered aliquot of virus was removed from the freezer (−80° C.) and allowed to thaw slowly to room temperature in a biological safety cabinet. The virus was re-suspended and diluted into tissue culture medium such that the amount of virus added to each well, in a volume of 50 μL, was the amount determined to give between 85 to 95% cell-killing at 6 days post infection.
For Plate Format, a checkerboard plate format was used to test five concentrations of Cabotegravir with eight concentrations of N6LS. Combination antiviral efficacy was evaluated on three identical assay plates (i.e., triplicate measurements) that included cell control wells (cells only) and virus control wells (cells plus virus). Combination cytotoxicity was evaluated in parallel on two identical assay plates (i.e., duplicate measurements) that included cell control wells. Antiviral efficacy and cellular toxicity were monitored by MTS staining at the experimental endpoint.
For MTS Endpoint for cell viability, at assay termination, the soluble tetrazolium-based dye MTS (CellTiter 96 Reagent, Promega) was added to each well to determine cell viability and quantify compound toxicity. MTS is metabolized by the mitochondria enzymes of metabolically active cells to yield a soluble formazan product, allowing the rapid quantitative analysis of cell viability and compound cytotoxicity. […] At termination of the assay, 20 μL of MTS reagent was added per well and the microtiter plates were then incubated for 3-4 hours at 37° C., 5% CO2 for the HIV cytoprotection assay; the incubation intervals were chosen based on empirically determined times for optimal MTS reduction. Adhesive plate sealers were used in place of the lids, the sealed plates were inverted several times to mix the soluble formazan product and the plates were read spectrophotometrically at 490/650 nm with a Molecular Devices SpectraMax i3 plate reader.
Combination antiviral assays were performed with MT-4 cells utilizing HIV-1NL4-3, as described above. For each combination assay, five concentrations of Cabotegravir were tested with eight concentrations of N6LS. […]

[2] = test system: broad range of HIV-1 strains; conditions: cited from earlier work
[3] = in combination with N6LS, 95% confidence values, experiment 1
[4] = in combination with N6LS, 95% confidence values, experiment 2
[5] = in combination with N6LS, 95% confidence values, experiment 3
[6] = in combination with N6LS, 95% confidence values, n = 3

## C[C@H]1CO[C@@H]2Cn3cc(C(=O)NCc4ccc(F)cc4F)c(=O)c(O)c3C(=O)N12 [Cabotegravir, N-((2,4-Difluorophenyl)methyl)-6-hydroxy-3-methyl-5,7-dioxo-2,3,5,7,11,11a hexahydro (1,3) oxazolo (3,2-a)pyrido (1,2-d) pyrazine-8-carboxamide]
[1]; combination of N6LS with Cabotegravir
  Drug-drug interaction of the combination: mainly synergistic or additive interactions
[1]; [3]
  Antagonism Volume, Result 1: −45.27 nM^2%
  Synergy Volume, Result 1: 2.32 nM^2%
[1]; [4]
  Antagonism Volume, Result 2: 0 nM^2%
  Synergy Volume, Result 2: 187.5 nM^2%
[1]; [5]
  Antagonism Volume, Result 3: −39.56 nM^2%
  Synergy Volume, Result 3: 61.7 nM^2%
[1]; [6]
  Mean Antagonism Volume: −28.28 nM^2
  Mean Synergy Volume: 83.84 nM^2
[2]
  potency and antiviral activity: subnanomolar potency
